From patent US6852317B2 (priority 2000, dated 2005)

System: Alternaria

SMILES: Nc1nc2cccc(-c3ccc(CN4CCS(=O)(=O)CC4)cc3)n2n1 [metabolite]
- activity after heating (heating to 80 degrees C. for one hour): not lost
- activity after treatment with acid (treated with acid): lost
- score against Alternaria after acid treatment (treated with acid, score before treatment 0, 0-5 scale): 5
- activity after treatment with base (treated with base): not lost
